The values below come from publication PMC11990103, “Anticancer Activity and Safety Profile of Novel 1-(4-Fluorophenoxyacetyl)-4-substituted Thio/Semicarbazide Derivatives” (Molecules, 2025).

One series concerns A375 melanoma cell line. Kind of series: MTT cytotoxicity assay. Format: cell-based, human. Particulars: 48 h treatment. How it is done: (§1) These cancer cell lines comprised prostate cancer (PC-3, DU-145, LNCaP), melanoma (SK-MEL28, A375, G-361), breast cancer (MCF-7, MDA-MB-231), and lung cancer (NCI-H1563). The MTT assay was carried out across a wide range of concentrations for 48 h.
(§2) The research was conducted on one primary cell line: BJ (fibroblast) and four types of cancerous ones: three prostate cancer cell lines (PC-3, DU-145, LNCaP); 3 Melanoma cell lines (MEL-28, A375, G-361); 2 breast cancer cell lines (MCF-7, MDA-MB-23) and one lung cancer cell line (NCI-H1563). All cell lines were obtained from the American Type Culture Collection (ATCC, Manassas, VA, USA) and were grown in media (Corning, New York, NY, USA) according to ATCC guidelines. The culture media was enriched with 10% heat-inactivated fetal bovine serum (Life Technologies, Carlsbad, CA, USA) and antibiotics: penicillin (100 units) and streptomycin (100 μg/mL) from Sigma-Aldrich (St. Louis, MO, USA). The cells were incubated at 37 °C with 5% CO2 in air.
(§3) The cytotoxic analysis of thiosemicarbazides (TSC) (AB1–AB6) and semicarbazides (SC) (AB7–AB12) was conducted in various concentrations. […] The cells were treated with compounds or DMSO as a vehicle in control cultures for 48h. IC50 values were determined using the AAT Bioquest IC50 calculator (AAT Bioquest, Inc., Pleasanton, CA, USA, Quest Graph™ EC50 Calculator. https://www.aatbio.com/tools/ec50-calculator) (accessed on 7 October 2024).
(§4) The cytotoxic activity of the thiosemicarbazides and semicarbazides was measured using the MTT colorimetric assay (MTT Cell Proliferation Assay Kit—Invitrogen, Waltham, MA, USA). The cells were seeded in the 96-well plates at a density of 1.5 × 10^5 cells/mL. After reaching 70–80% of confluence, the tested compounds in a wide range of concentrations were added. Plates were incubated for 48 h at 37 °C in 5% CO2 air. Then, […] tetrazolium salt (3-(4,5-dimethylthiazol-2-yl)-2,5-diphenyltetrazolium bromide)—MTT reagent (0.5 mg/mL) dissolved in PBS was added to each well for 4 h. The MTT solution was then removed from above the water-insoluble purple formazan crystals, which were then dissolved in DMSO (dimethyl sulfoxide, […]; POCH, Gliwice, Poland). The absorbance value of obtained solutions was measured using a PowerWave ™ microplate spectrophotometer (Bio-Tek Instruments, Winooski, VT, USA) at a wavelength of 570 nm. Each cytotoxicity assay was repeated three times in triplicates.
Background: Formazan colour is commonly taken as a measure of viable cells.

Series [1] deals with LNCaP prostate cancer cell line. Kind of series: MTT cytotoxicity assay. Format: cell-based, human. The conditions noted are these: MTT, 48 h treatment. The protocol:
as §1, §2, §3, §4

In series [2] the test system is SK-MEL28 melanoma cell line. Kind of series: MTT cytotoxicity assay. Type of series: cell-based, human. The conditions noted are these: 48 h treatment. The protocol:
as §1, §2, §3, §4

For series [3], the system named is NCI-H1563 lung cancer cell line. Kind of series: MTT cytotoxicity assay. Particulars: 48 h treatment. Type of series: cell-based, human. The protocol: as §1, §2, §3, §4
For series [4], the system named is MDA-MB-231 breast cancer cell line. Kind of series: MTT cytotoxicity assay. Particulars: 48 h treatment. Format: cell-based, human. How it is done: as §1, §2, §3, §4
For the next series, the system named is G-361 melanoma cell line. Kind of series: MTT cytotoxicity assay. Type of series: cell-based, human. The conditions noted are these: MTT, 48 h treatment. The protocol:
as §1, §2, §3, §4

Series [5] concerns MCF-7 breast cancer cell line. Kind of series: MTT cytotoxicity assay. Format: cell-based, human. The conditions noted are these: 48 h treatment. The protocol: as §1, §2, §3, §4
The test system of series [6] is PC-3 prostate cancer cell line. Kind of series: MTT cytotoxicity assay. Type of series: cell-based, human. The conditions noted are these: 48 h treatment. The protocol: as §1, §2, §3, §4
Series [7] concerns DU-145 prostate cancer cell line. The series can be described thus: MTT cytotoxicity assay. Type of series: cell-based, human. Particulars: 48 h treatment. The protocol:
as §1, §2, §3, §4

Another series relates to BJ fibroblasts. Kind of series: MTT cytotoxicity assay, normal cells. Particulars: 48 h treatment, read-out: IC50 BJ (fibroblast). Format: cell-based, human. The protocol:
as §1, §2, §3, §4

Another series relates to zebrafish embryos. Details: method as in PMID 36436567. Particulars: cited from earlier work.
On the set-up of series [8]: method as in PMID 14912098. Particulars: as toxic as thiosemicarbazide; cited from earlier work.
Series [9] relates to tested cancer cell lines (PC-3, DU-145, LNCaP, SK-MEL28, A375, G-361, MCF-7, MDA-MB-231, NCI-H1563). Kind of series: MTT cytotoxicity assay, panel of nine cancer cell lines as a whole. Format: cell-based, human. How it is done: as §1
The research was conducted on one primary cell line: BJ (fibroblast) and four types of cancerous ones: three prostate cancer cell lines (PC-3, DU-145, LNCaP); 3 Melanoma cell lines (MEL-28, A375, G-361); 2 breast cancer cell lines (MCF-7, MDA-MB-23) and one lung cancer cell line (NCI-H1563). […]
The cytotoxic analysis of thiosemicarbazides (TSC) (AB1–AB6) and semicarbazides (SC) (AB7–AB12) was conducted in various concentrations. […] IC50 values were determined using the AAT Bioquest IC50 calculator (AAT Bioquest, Inc., Pleasanton, CA, USA, Quest Graph™ EC50 Calculator. https://www.aatbio.com/tools/ec50-calculator) (accessed on 7 October 2024).
The cytotoxic activity of the thiosemicarbazides and semicarbazides was measured using the MTT colorimetric assay (MTT Cell Proliferation Assay Kit—Invitrogen, Waltham, MA, USA). […] The absorbance value of obtained solutions was measured using a PowerWave ™ microplate spectrophotometer (Bio-Tek Instruments, Winooski, VT, USA) at a wavelength of 570 nm. […]

In the next series the test system is G-361 melanoma cells. More on the design: method as in PMID 35204651. The conditions noted are these: cited from earlier work.

For orientation: IC50 means the concentration that gives 50% inhibition.

Take `O=C(COc1ccc(F)cc1)NNC(=S)Nc1cccc(Cl)c1` [AB3]: the IC50 worked out at 400 µM in the series with A375 melanoma cell line; 175 µM in series [1]; 302 µM in series [2]; 437 µM in series [3]; 495 µM in series [4]; 248 µM in the series on G-361 melanoma cell line. For the same compound, the IC50 was 456 µM in series [5], 467 µM in series [6], 268 µM in series [7] and 422 µM in the series on BJ fibroblasts.

`O=C(COc1ccc(F)cc1)NNC(=S)Nc1ccc(Cl)cc1` [AB4]: the IC50 amounted to 399 µM in the series on A375 melanoma cell line; 257 µM in series [1]; 322 µM in series [2]; 293 µM in series [3]; 421 µM in [4]; 265 µM in the series with G-361 melanoma cell line. For the same compound, the IC50 in [5] amounted to 343 µM; in series [6] it was 355 µM; in series [7], 297 µM; with BJ fibroblasts, 313 µM.

Consider `CCNC(=O)NNC(=O)c1ccc([N+](=O)[O-])cc1` [1-(4-nitrobenzoyl)-4-ethylsemicarbazide], for which the “morphological abnormalities, including cardiotoxicity” value with zebrafish embryos is given as “do not cause morphological abnormalities, including cardiotoxicity”.

`CCCCCCNC(=O)NNC(=O)Cc1ccc([N+](=O)[O-])cc1` [1-[(4-nitrophenyl)acetyl]-4-hexylsemicarbazide]: the “morphological abnormalities, including cardiotoxicity” value with zebrafish embryos is given as “do not cause morphological abnormalities, including cardiotoxicity”.

Take `NNC(N)=O` [semicarbazide]: the “toxicity relative to thiosemicarbazide” value in series [8] is “about 1/20”.

As for `O=C(COc1ccc(F)cc1)NNC(=S)Nc1ccc(Cl)c(Cl)c1` [AB6], the IC50 in the series on A375 melanoma cell line came to 257 µM; in series [1], 121 µM; in series [2], 195 µM; in [3], 242 µM; in [4] it was 334 µM; in the series with G-361 melanoma cell line, 210 µM. The IC50 in series [5] is 240 µM; in series [6] it was 388 µM; in [7], 343 µM; in the series with BJ fibroblasts, less than 100 µM. The “selectivity index (SI)” value in series [9] (IC50 normal cells (BJ) divided by IC50 cancer cells, cell line not specified) was less than 1.

Consider `CSc1ccc(NC(=S)NNC(=O)COc2ccc(Cl)cc2Cl)cc1` [PK2], for which, in the series with G-361 melanoma cells, the “population of cells in the sub-G1 phase” value is recorded as “increase”.

As for `O=C(COc1ccc(F)cc1)NNC(=S)Nc1ccccc1` [AB1], the IC50 was greater than 500 µM with A375 melanoma cell line; 252 µM in series [1]; greater than 500 µM in series [2]; greater than 500 µM in series [3]; greater than 500 µM in [4]; 369 µM in the series with G-361 melanoma cell line. The IC50 in [5] was greater than 500 µM; in series [6] it was greater than 500 µM; in series [7], greater than 500 µM; in the series on BJ fibroblasts, 498 µM; in [9] (MTT, 48 h, thiosemicarbazides tested 500 to 100 μM, semicarbazides 100 μM to 1 μM, read-out: IC50 in the tested cancer cell lines (stated for the panel)) it was greater than 500 µM.

Regarding `O=C(COc1ccc(F)cc1)NNC(=S)Nc1ccc(Cl)cc1Cl` [AB5], the IC50 came to 384 µM in the series on A375 melanoma cell line; 154 µM in series [1]; 297 µM in [2]; 372 µM in series [3]; 445 µM in series [4]; 276 µM with G-361 melanoma cell line. The IC50 in series [5] worked out at 421 µM; in series [6], 395 µM; in series [7], 401 µM; in the series with BJ fibroblasts, 303 µM.

As for `N.N.[Cl][Pt][Cl]` [Cisplatin, reference compound], the IC50 stood at 18.2 µM in the series with A375 melanoma cell line; 31.5 µM in series [1]; 25.8 µM in series [2]; 2.78 µM in series [3]; 38.7 µM in [4]; 12.5 µM in the series on G-361 melanoma cell line. The IC50 in [5] turned out to be 22.6 µM; in series [6], 52.2 µM; in series [7], 64.1 µM.
